27 compounds from the Kinase Knowledgebase extract (Sharma et al. 2016) can be followed below.

Assay [1] concerns the target MAPK14 (human) (UniProt Q16539). Kind of assay: Inhibition of IL-1 Production in Whole Blood.
Assay [2] shares this target. Kind of assay: Inhibition of TNF Production in Whole Blood.
For assay [3] the target is unchanged. Kind of assay: Inhibition of IL-6 Production in Whole Blood.
The target is the same in assay [4]. In words: Inhibition of TNF-alpha Production in LPS-Stimulated PBMCs. The following applies: pbmc.
Assay [5] shares this target. In words: Inhibition of IL-1 Production in LPS-Stimulated PBMCs. Conditions: pbmc.

Where only a bound is given, the exact number is not on record here.

MAPK14 (human), sequence (Q16539 whole entry, looked up): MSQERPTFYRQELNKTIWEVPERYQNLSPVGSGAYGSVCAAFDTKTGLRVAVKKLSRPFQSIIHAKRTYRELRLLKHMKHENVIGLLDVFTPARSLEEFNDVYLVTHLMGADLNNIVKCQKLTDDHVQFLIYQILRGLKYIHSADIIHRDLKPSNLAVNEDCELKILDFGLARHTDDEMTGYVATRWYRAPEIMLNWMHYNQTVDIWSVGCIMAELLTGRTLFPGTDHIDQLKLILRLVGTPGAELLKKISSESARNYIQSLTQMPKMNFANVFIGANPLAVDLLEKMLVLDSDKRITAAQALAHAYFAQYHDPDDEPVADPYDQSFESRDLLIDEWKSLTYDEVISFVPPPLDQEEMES

Turning to `NC(=O)N(c1cccc(-c2ccccc2)n1)c1c(Cl)cccc1Cl`, the IC50 on MAPK14 (human) [1], at MAPK14 (human) [2] and against MAPK14 (human) [3] was more than 500 nM throughout.
Consider `Cc1ccccc1-c1cccc(C(C(N)=O)c2c(Cl)cccc2Cl)n1` (stereo unspecified), for which the IC50 against MAPK14 (human) [1], against MAPK14 (human) [2], against MAPK14 (human) [4] and against MAPK14 (human) [3] was more than 500 nM each time.
As to `Cc1ccc(Sc2ccc3c(-c4c(Cl)cccc4Cl)c(=O)ncn3n2)cc1C`, the IC50 against MAPK14 (human) [4] and at MAPK14 (human) [5] was more than 500 nM throughout.
Turning to `NC(=O)C(c1cccc(-c2cccs2)n1)c1c(Cl)cccc1Cl` (stereo unspecified), the IC50 against MAPK14 (human) [4] and on MAPK14 (human) [5] was more than 500 nM each time.
`O=c1ncn2nc(Sc3ccc(F)cc3Cl)ccc2c1-c1c(Cl)cccc1Cl`: the IC50 on MAPK14 (human) [1], against MAPK14 (human) [2] and on MAPK14 (human) [3] was 250 to 500 nM each time.
As to `O=C1NCN2N=C(Sc3ccccc3Br)C=CC2=C1c1c(Cl)cccc1Cl`, the IC50 against MAPK14 (human) [1] was more than 500 nM; at MAPK14 (human) [2] it was more than 500 nM; on MAPK14 (human) [3], 250 to 500 nM.
Consider `N=C(N)Nc1cc(F)c(F)cc1SC1=NN2CNC(=O)C(c3c(Cl)cccc3Cl)=C2C=C1`, for which the IC50 on MAPK14 (human) [4] and at MAPK14 (human) [5] was more than 500 nM each time.
As to `Nc1cc(F)ccc1SC1=NN2CNC(=O)C(c3c(Cl)cccc3Cl)=C2C=C1`, the values for the IC50 at MAPK14 (human) [1], on MAPK14 (human) [2] and at MAPK14 (human) [3] were 250 to 500 nM, 250 to 500 nM and less than 250 nM, respectively.
With `Cc1cccc(-c2cccc(C(C(N)=O)c3c(Cl)cccc3Cl)n2)c1` (stereo unspecified), the IC50 on MAPK14 (human) [1], against MAPK14 (human) [2], against MAPK14 (human) [4] and at MAPK14 (human) [3] was more than 500 nM in each case.
On to `NC(=O)C(c1cccc(-c2ccccc2)n1)c1c(Cl)cccc1Cl` (stereo unspecified), for which the IC50 at MAPK14 (human) [1], against MAPK14 (human) [2] and against MAPK14 (human) [3] was more than 500 nM throughout.
`NC(=O)C(c1cccc(-c2ccc(Cl)cc2Cl)n1)c1c(Cl)cccc1Cl` (stereo unspecified): the IC50 against MAPK14 (human) [1], against MAPK14 (human) [2] and at MAPK14 (human) [3] was more than 500 nM each time.
Consider `Cc1ccccc1-c1c(=O)ncn2nc(Sc3ccccc3)ccc12`, for which the IC50 at MAPK14 (human) [4] and against MAPK14 (human) [5] was more than 500 nM throughout.
As to `Cc1cc(F)ccc1-c1cccc(C(C(N)=O)c2c(Cl)cc(N)cc2Cl)n1` (stereo unspecified), the IC50 against MAPK14 (human) [1], at MAPK14 (human) [2] and against MAPK14 (human) [3] was more than 500 nM throughout.
With `NC(=O)C(c1cccc(-c2cccc3ccccc23)n1)c1c(Cl)cccc1Cl` (stereo unspecified), the 50% inhibitory concentration (IC50) at MAPK14 (human) [1], on MAPK14 (human) [2] and against MAPK14 (human) [3] was more than 500 nM in each case.
Turning to `Cc1cccc(Sc2ccc3c(-c4c(Cl)cccc4Cl)c(=O)ncn3n2)c1`, the IC50 against MAPK14 (human) [4] and against MAPK14 (human) [5] was 100 to 500 nM in each case.
Turning to `Cc1cc(F)ccc1-c1cccc(N(C(N)=O)c2c(Cl)cccc2Cl)n1`, the IC50 on MAPK14 (human) [1] is more than 500 nM; on MAPK14 (human) [2], more than 500 nM; at MAPK14 (human) [3], 250 to 500 nM.
`Cc1cc(F)ccc1-c1cccc(N(C(N)=O)c2cc3c(cc2Cl)OCO3)n1`: the IC50 against MAPK14 (human) [1], on MAPK14 (human) [2] and at MAPK14 (human) [3] was more than 500 nM each time.
Turning to `Cc1ccccc1-c1cccc(N(C(N)=O)c2c(F)cccc2F)n1`, the results for the IC50 against MAPK14 (human) [1], against MAPK14 (human) [2] and against MAPK14 (human) [3] were more than 500 nM, more than 500 nM and 250 to 500 nM, respectively.
On to `O=c1ncn2nc(Sc3ccccn3)ccc2c1-c1c(Cl)cccc1Cl`, for which the IC50 at MAPK14 (human) [1] and against MAPK14 (human) [4] was more than 500 nM each time.
As to `O=C1NCN2N=C(Sc3ccc(F)cc3Cl)C=CC2=C1c1c(Cl)cccc1Cl`, the IC50 at MAPK14 (human) [1] is 250 to 500 nM; at MAPK14 (human) [2], 250 to 500 nM; at MAPK14 (human) [3], less than 250 nM.
For the compound `O=C1NCN2N=C(Sc3ccccc3O)C=CC2=C1c1c(Cl)cccc1Cl`, the IC50 against MAPK14 (human) [1] was 250 to 500 nM; at MAPK14 (human) [2], 250 to 500 nM; on MAPK14 (human) [3], less than 250 nM.
For the compound `O=C1NCN2N=C(Sc3ccc(F)cc3)C=CC2=C1c1cc2c(cc1Cl)OCO2`, the values for the IC50 on MAPK14 (human) [1], at MAPK14 (human) [2] and against MAPK14 (human) [3] were 250 to 500 nM, more than 500 nM and 250 to 500 nM, respectively.
In the case of `Nc1ccc(C2=C3C=CC(Sc4ccc(F)cc4)=NN3CNC2=O)c(Cl)c1`, the IC50 at MAPK14 (human) [1] is more than 500 nM; against MAPK14 (human) [2], more than 500 nM; against MAPK14 (human) [3] it was 250 to 500 nM.
As to `O=C1NCN2N=C(Sc3ccc(F)cc3)C=CC2=C1c1c(Cl)cccc1Cl`, the IC50 is more than 500 nM at MAPK14 (human) [1] and 250 to 500 nM at MAPK14 (human) [3].
Take `Cc1ccc(SC2=NN3CNC(=O)C(c4c(Cl)cccc4Cl)=C3C=C2)c(C)c1`: the IC50 on MAPK14 (human) [1], on MAPK14 (human) [2] and against MAPK14 (human) [3] was more than 500 nM each time.
On to `Cc1cc(Cl)ccc1SC1=NN2CNC(=O)C(c3c(Cl)cccc3Cl)=C2C=C1`, for which the IC50 was more than 500 nM at MAPK14 (human) [1], 250 to 500 nM against MAPK14 (human) [2] and 250 to 500 nM at MAPK14 (human) [3].
Regarding `COc1ccc(C2=C3C=CC(Sc4ccc(F)cc4)=NN3CNC2=O)c(Cl)c1OC`, the IC50 against MAPK14 (human) [1], on MAPK14 (human) [2] and against MAPK14 (human) [3] was more than 500 nM throughout.

For orientation: IC50 means the concentration that inhibits the measured activity by half. Read a high IC50 as lower potency.
